Source: EP2440567B1, “SUBSTITUTED 16,17-ANNELLATED STEROID COMPOUNDS FOR USE IN WOMEN'S HEALTHCARE” (priority 2009, dated 2010)

How the values were obtained:
pregnant rats = assay: Embryofetal toxicity study in pregnant rats; format: in vivo, rat
ovulation = assay: Ovulation inhibition in intact cycling female rats; format: in vivo
vaginal tissue = assay: Allen-Doisy test; format: in vivo
bone = assay: AOST BMD (bone mineral density); format: in vivo
[1] = system: estrogen receptors in the CNS; assay: Lordosis model (facilitation of female sexual behaviour); format: in vivo
endometrium = assay: 4-week phase I study, endometrial biopsies histopathology; format: in vivo; settings: female human volunteers; biopsies on day 29; exposure via oral 10 mg daily Org 41621
[2] = system: circulating levels of LH and FSH; assay: 4-week multiple dose study in ovariectomized female rats; format: in vivo, rat

Row | SMILES | major fetal abnormalities (ribs, humerus and scapula) (pregnant rats; pregnant rats, oral gavage, 0.09 mg/kg) | major fetal abnormalities (ribs, humerus and scapula) (pregnant rats; pregnant rats, oral gavage, 0.15 mg/kg) | Ovulation Inhibition (rat) MAD p.o. (ovulation) | Allen-Doisy (rat) MAD p.o. (vaginal tissue) | AOST BMD (rat) MAD p.o. (bone) | Lordosis (rat) MAD p.o. [1] | Histopathology scores of endometrial biopsies (endometrium) | signs of hyperplasia (endometrium) (endometrium) | suppression of circulating levels of LH and FSH ([2]; 4-week multiple dose, oral and subcutaneous application in gelatine/mannitol) | behaviour on vaginal tissue, cholesterol metabolism and bone (bone mineral density, circulating osteocalcin) ([2]; same series of studies) | minor defects, incidence of wavy ribs (pregnant rats; pregnant rats, oral gavage, 0.1 mg/kg) | body weight gain of the dams (pregnant rats; pregnant rats, oral gavage, 0.1 mg/kg/day up to and including 10 mg/kg/day) | effects (fetal defects) (pregnant rats; pregnant rats, oral gavage, 0.3 mg/kg, based on a total of 13 fetuses) | major defects (fetuses) (pregnant rats; pregnant rats, oral gavage, treated groups) | teratogenicity in the rat (pregnant rats; preliminary embryofetal development study, up to a dose of 0.3 mg/kg)
1 | CCC[C@@H]1Cc2cc(O)ccc2[C@H]2CC[C@@]3(C)[C@@H](C[C@H]4CC[C@H](O)C[C@]43O)[C@H]12 [Org 41621, (7α,16β,17α,22β)-7-propyl-16,24-cyclo-19,21-dinorchola-1,3,5(10)-triene-3,17,22-triol, reference compound] | 3/273 | 11/216 | – | – | – | – | – | – | – | – | – | – | – | – | –
2 | C#C[C@]1(O)CC[C@H]2[C@@H]3CCc4cc(O)ccc4[C@H]3CC[C@@]21C [EE, Ethynyl-Estradiol, reference compound] | – | – | 0.022 mg/kg.day | 0.016 mg/kg.day | 0.020 mg/kg.day | 0.035 mg/kg.day | – | – | – | – | – | – | – | – | –
3 | CCC[C@@H]1Cc2cc(O)ccc2[C@H]2CC[C@@]3(C)[C@@H](C[C@H]4CCC(=O)C[C@]43O)[C@H]12 [Compound 10, (7α,16β,17α)-3,17-dihydroxy-7-propyl-16,24-cyclo-19,21-dinorchola-1,3,5(10)-trien-22-one] | – | – | 0.10 mg/kg.day | 0.15 mg/kg.day | 0.12 mg/kg.day | 0.14 mg/kg.day | mostly atrophic or inactive endometrium with some subjects showing conversion to secretory (P-type) endometrium | no signs of hyperplasia | effectively suppress | behaves as an estrogen receptor agonist | 4/153 | significant reduction in body weight gain | No effects | No major defects | no evidence of teratogenicity
